Measurements reported in patent US20130338217A1, “ANTIBIOTIC COMPOSITION INCLUDING PHLOROTANNIN COMPOUND DERIVED FROM EISENIA BICYCLIS AS EFFECTIVE COMPONENT” (PUKYONG NATIONAL UNIVERSITY INDUSTRY-UNIVERSITY C, priority 2012, published 2013).
Converted amounts (≈) assume the structure as drawn.

Columns and labels:
Assay type in all cases: cell-based, Staphylococcus aureus
MRSA (KCCM 40510) [1] = assay: Minimum inhibitory concentration, two-fold serial dilution, MRSA KCCM 40510
Procedure: (§1) All the bacterial strains used for the Example were obtained from the Korean Collection of Type Cultures (KCTC; Daejeon, Korea) and the Korean Culture Center of Microorganisms (KCCM; Seoul, Korea). The bacterial strains used for the Example were methicillin-susceptible S. aureus (MSSA; KCTC 1927), two MRSA strains (KCCM 40510 and KCCM 40511). All strains were grown in Mueller-Hinton broth (MHB; Difco, Detroit, USA) or Tryptic soy broth (TSB; Difco) for minimum inhibitory concentration (MIC) assay and in Mueller-Hinton agar (MHA; Difco) for disc diffusion.
(§2) MIC means the lowest concentration of antimicrobials that will inhibit the visible growth of microorganisms after overnight incubation. MICS of the extracts and vancomycin were determined by the two-fold serial dilution method in MHB.

MSSA (KCTC 1927) = assay: Minimum inhibitory concentration, two-fold serial dilution, MSSA KCTC 1927
Procedure: as §1, §2

MRSA (KCCM 40511) [2] = assay: Minimum inhibitory concentration, two-fold serial dilution, MRSA KCCM 40511
Procedure: as §1, §2

MRSA (KCCM 40510) [3] = assay: Checkerboard synergy of phlorofucofuroeckol-A and β-lactams, MRSA KCCM 40510
Procedure: (§3) The interaction between phlorofucofuroeckol-A (PFF) and β-lactams including ampicillin, penicillin and oxacillin against MRSA was tested by the checkerboard method. The synergistic effect was evaluated as a fractional inhibitory concentration (FIC) index. The FIC was calculated as the MICS of an antibiotic or phlorofucofuroeckol-A (PFF) in combination divided by the MIC of the antibiotic or PFF alone as follows.
(§4) The FIC was then summed to derive the FIC index, which indicated synergy when index values were as follows:
(§5) synergism ≦≦0.5, indifference >0.5 to ≦≦4, antagonism >4.
(§6) FICA=MICA in combination/MICA, FICB=MICB in combination/MICB

MSSA (KCCTC 1927) = assay: Checkerboard synergy of phlorofucofuroeckol-A and β-lactams, MSSA KCTC 1927
MRSA (KCCM 40511) [4] = assay: Checkerboard synergy of phlorofucofuroeckol-A and β-lactams, MRSA KCCM 40511
Procedure: as §3, §4, §5, §6

PBP2a = assay: Western blot of PBP2a in MRSA; conditions: MRSA cells treated with various concentrations
Procedure: In order to elucidate the inhibitory effect of phlorofucofuroeckol-A on expression of a drug resistance related protein, PBP2a, MRSA cells were treated with various concentrations of phlorofucofuroeckol-A. After cell harvesting, the bacterial lysates were prepared in a lysis buffer containing 20 mM Tris-HCl (pH 7.5), 2 mM ethyleneglycoltetraacetic acid (EGTA), 2 mM ethylenediaminetetraacetic acid (EDTA) and 0.25 M sucrose. The pellets were resuspended by sonication in lysis buffer 2 times for 20 sec. Following 10 min of centrifugation at 13,000×g, the supernatant was obtained as the cell lysate. Protein concentrations were measured with Bradford protein assay. An equal amount of 2×SDS-PAGE sample buffer (pH […], 1 mM EGTA, 1 mM EDTA, 1% SDS, 150 mM NaCl) was added to the tubes containing the cell lysate and the tubes were boiled for 3 min. Aliquots of cellular proteins were then electrophoresed on 10%.

MRSA = assay: Synergy of PFF with β-lactams against MRSA as stated in text; conditions: PFF 25 pg/mL as printed
Procedure: as §3

[5] = test system: mec operon (mecA, mecI, mecR1); assay: RT-PCR of drug resistance related genes in MRSA; conditions: MRSA cells treated with various concentrations
Procedure: In order to elucidate the inhibitory effect of phlorofucofuroeckol-A on expression of drug resistance related genes, MRSA cells were treated with various concentrations of phlorofucofuroeckol-A. After cell harvesting, Total RNA was isolated from the strains with zirconia beads and RNAwiz with the manufacturer's specifications. RNA concentrations were estimated via spectrophotometer at 260 nm. The 0.2-1.4 μg of total RNA plus 1.4 μg of random primer was denatured at 65° C. for 5 min, then cooled at 30 sec and preincubated for 2 min at 37° C. after the addition of 10 mM dithioothreitol (DTT), 2.5 mM each of dNTPs, and reaction buffer. Any remaining cRNA was removed via the addition of 2 units RNase H at 37° C. for 20 min. One hundred units of Superscript II reverse transcriptase were added and incubated for 50 min at 37° C. The reaction was then suspended at 70° C. for 15 min. One point five percent of the RT products were added to a PCR reaction which included PCR buffer (pH 8.4, 20 mM Tris, 50 mM KCl), 1.5 mM MgCl2, 0.5 mM dNTPs, 2 pM primers and 0.1 μL Taq DNA polymerase. Twenty-eight PCR cycles were then conducted follows: denaturation at 95° C. annealing at an indicated temperature for each primer and extension at 72° C. […]

[6] = Table 6, isolated phlorotannins
[7] = in combination with phlorofucofuroeckol-A at 12.5 μg/ml
[8] = in combination with phlorofucofuroeckol-A at 25 μg/ml
[9] = β-lactam with phlorofucofuroeckol-A at 12.5 μg/ml, synergism ≦0.5, indifference >0.5 to ≦4, antagonism >4
[10] = β-lactam with phlorofucofuroeckol-A at 25 μg/ml, synergism ≦0.5, indifference >0.5 to ≦4, antagonism >4
[11] = Table 5, PFF and β-lactams, mecA positive strain
[12] = Table 5, PFF and β-lactams, mecA negative strain

PBP2a, sequence (P07944 whole entry): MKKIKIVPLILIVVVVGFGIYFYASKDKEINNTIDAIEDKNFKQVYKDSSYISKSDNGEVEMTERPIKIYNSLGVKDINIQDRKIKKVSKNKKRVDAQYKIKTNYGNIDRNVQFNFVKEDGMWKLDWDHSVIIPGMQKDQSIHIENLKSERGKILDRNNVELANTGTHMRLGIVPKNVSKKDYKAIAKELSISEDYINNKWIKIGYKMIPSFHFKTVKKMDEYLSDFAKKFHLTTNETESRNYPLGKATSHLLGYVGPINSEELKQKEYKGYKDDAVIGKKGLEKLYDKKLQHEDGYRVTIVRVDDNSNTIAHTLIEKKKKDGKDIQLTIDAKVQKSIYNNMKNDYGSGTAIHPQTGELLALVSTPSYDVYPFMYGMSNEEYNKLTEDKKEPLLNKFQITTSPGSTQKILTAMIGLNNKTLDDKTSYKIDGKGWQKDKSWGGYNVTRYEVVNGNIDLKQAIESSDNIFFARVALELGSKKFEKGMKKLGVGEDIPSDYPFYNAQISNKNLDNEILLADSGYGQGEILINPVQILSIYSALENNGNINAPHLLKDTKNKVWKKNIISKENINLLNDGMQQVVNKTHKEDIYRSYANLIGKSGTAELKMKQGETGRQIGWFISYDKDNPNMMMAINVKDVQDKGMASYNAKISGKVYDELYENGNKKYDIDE

Oc1cc(O)cc(Oc2c(O)cc(O)c3c2Oc2c(O)cc(Oc4c(O)cc(O)cc4O)cc2O3)c1 [PE, 1-(3′,5′-dihydroxyphenoxy)-7-(2″,4″,6-trihydroxyphenoxy)-2,4,9-trihydroxydibenzo-1,4-dioxin]
MIC (MRSA (KCCM 40510) [1]; [6]): 32 µg/mL (≈ 64.5 µM) | MIC (MSSA (KCTC 1927); [6]): 64 µg/mL (≈ 129 µM) | MIC (MRSA (KCCM 40511) [2]; [6]): 64 µg/mL (≈ 129 µM)

CN[C@H](CC(C)C)C(=O)N[C@H]1C(=O)N[C@@H](CC(N)=O)C(=O)N[C@H]2C(=O)N[C@H]3C(=O)N[C@H](C(=O)N[C@H](C(=O)O)c4cc(O)cc(O)c4-c4cc3ccc4O)[C@H](O)c3ccc(c(Cl)c3)Oc3cc2cc(c3O[C@@H]2O[C@H](CO)[C@@H](O)[C@H](O)[C@H]2O[C@H]2C[C@](C)(N)[C@H](O)[C@H](C)O2)Oc2ccc(cc2Cl)[C@H]1O [Vancomycin, vancomycin]
MIC (MRSA (KCCM 40510) [1]; Staphylococcus aureus): 2 µg/mL (≈ 1.38 µM) | MIC (MSSA (KCTC 1927); Staphylococcus aureus): 0.5 µg/mL (≈ 0.345 µM) | MIC (MRSA (KCCM 40511) [2]; Staphylococcus aureus): 2 µg/mL (≈ 1.38 µM)

fucofuroeckol-A [FF]
MIC (MRSA (KCCM 40510) [1]; [6]): 64 µg/mL | MIC (MSSA (KCTC 1927); [6]): 32 µg/mL | MIC (MRSA (KCCM 40511) [2]; [6]): 64 µg/mL

penicillin
MIC of β-lactam (B) (MRSA (KCCM 40510) [3]; [7]): 4 µg/mL | MIC of β-lactam (C) (MRSA (KCCM 40510) [3]; [8]): 2 µg/mL | MIC of β-lactam (A) (MRSA (KCCM 40510) [3]; without phlorofucofuroeckol-A): 512 µg/mL | FIC index (b) (MRSA (KCCM 40510) [3]; [9]): 0.399 | FIC index (c) (MRSA (KCCM 40510) [3]; [10]): 0.395 | MIC (MRSA (KCCM 40510) [1]; [11]): 512 µg/mL | MIC (MSSA (KCTC 1927); [12]): 0.125 µg/mL | MIC of β-lactam (B) (MSSA (KCCTC 1927); [7]): 0.125 µg/mL | MIC of β-lactam (C) (MSSA (KCCTC 1927); [8]): 0.125 µg/mL | MIC of β-lactam (A) (MSSA (KCCTC 1927); without phlorofucofuroeckol-A): 0.125 µg/mL | FIC index (b) (MSSA (KCCTC 1927); [9]): 1.391 | FIC index (c) (MSSA (KCCTC 1927); [10]): 1.781 | MIC (MRSA (KCCM 40511) [2]; [11]): 256 µg/mL | MIC of β-lactam (B) (MRSA (KCCM 40511) [4]; [7]): 1 µg/mL | MIC of β-lactam (C) (MRSA (KCCM 40511) [4]; [8]): 0.5 µg/mL | MIC of β-lactam (A) (MRSA (KCCM 40511) [4]; without phlorofucofuroeckol-A): 256 µg/mL | FIC index (b) (MRSA (KCCM 40511) [4]; [9]): 0.395 | FIC index (c) (MRSA (KCCM 40511) [4]; [10]): 0.393

phlorofucofuroeckol A [PFF]
MIC (MRSA (KCCM 40510) [1]; [11]): 32 µg/mL | MIC (MRSA (KCCM 40510) [1]; [6]): 32 µg/mL | MIC (MSSA (KCTC 1927); [12]): 32 µg/mL | MIC (MSSA (KCTC 1927); [6]): 32 µg/mL | PBP2a synthesis (protein expression) (PBP2a): inhibited a PBP2a synthesis that is a final product of mecA gene depending on the concentrations | effect on the MICs of the β-lactams against MRSA (MRSA): remarkably reduce the MICS of the β-lactams against MRSA | gene transcription of mec operon (mecA, mecI, mecR1) [5]: inhibited the gene transcription of mec operon (mecA, mecI, mecR1) involving in synthesizing PBP2a depending on the concentrations | MIC (MRSA (KCCM 40511) [2]; [11]): 32 µg/mL | MIC (MRSA (KCCM 40511) [2]; [6]): 32 µg/mL
